What was measured:
[1] = test system: cellular uptake of X-DING-CD4 protein; assay: Cellular uptake of X-DING-CD4 protein tested by RSA in 1G5 cells treated with uptake inhibitors; type: cell-based
Experimental: Cellular uptake of X-DING-CD4 protein was tested by RSA in 1G5 cells treated with chemicals affecting: (i) clatrin mediated endocytosis—[…] (CPZ); (ii) endocytosis—cytochalasin D (CCD) and chloroquine (CQ) or (iii) macropinocytosis—dimethyl amiloride (DMA). Untreated group referred to the experimental system where X-DING-CD4 mediated inhibition of transcription was measured without cellular exposure to chemicals.

HIV-1 LTR promoter = assay: Rapid Suppression Assay (RSA), PMA-induced HIV-1 LTR-driven luciferase in 1G5 cells; type: cell-based; conditions: for IC50: 1G5 cells, PMA 5 ng/ml, read-out: IC50, HIV-1 LTR promoter inhibition; for IC50, HIV-1 LTR promoter inhibition, mass concentration: Table 1
Text: We applied the cell based Rapid Suppression Assay (RSA) for testing X-DING-CD4-induced inhibition of HIV-1 LTR promoter (Lesner et al., 2004; Lesner et al., 2005). Briefly, 1 G5 cells (obtained through the NIH AIDS Research and Reagent Program, Division of AIDS, NIAID, NIH) that are stably transfected with an inducible luciferase gene driven by HIV-1 LTR (Aguilar-Cordova et al., 1994) were washed in PBS, resuspended in hybridoma medium to concentration of 5×10^6cells/ml. For purpose of generating control titration curves, 100 μl aliquots of 1G5 cells were mixed with 100 μl cell culture medium either supplemented with various amount of rX-DING-CD4^pep (SEQ ID No: 1) or no rX-DING-CD4^pep, and incubated for three hours at 37° C. Subsequently, all cells were induced with phorbol 12-myristate 13-acetate (PMA) at a concentration of 5 ng/ml. Two control tubes containing 1G5 cells without rX-DING-CD4^pep treatment were resuspended in hybridoma medium with or without PMA. Three hours later cells were collected by centrifugation and lysed in the same tubes using Reporter Lysis buffer (Promega). The expression levels of luciferase protein in the lysates were determined according to the manufacturer's protocol. The X-DING-CD4^pep inhibition values were established based on the formula: [(LUC1-LUC0)×100/Z]−100; where LUC1 is the value obtained from cells induced by PMA and treated with a specific dilution of X-DING-CD4^pep; and LUC0 is the basal value obtained from the uninduced and untreated cells; Z is the absolute luciferase induction by PMA calculated as Z=LUCmax-LUCO3 where LUCmax is the value of 100% luciferase expression in PMA induced X-DING-CD4^pep untreated cells.
One aspect of the present invention is related to X-DING-CD4 peptide derivatives. Here we obtained 15 derivatives SED ID NOS: 1-15 by recombination or in vitro synthesis. We tested the biological activity of some these derivatives by rapid suppression assay (RSA). In XD-4M, the third amino acid glycine in the native X-DING-CD4 peptide was substituted with the polar amino acid glutamine. In XD-7, the two amino acids, cysteine and valine, replaced the three amino acids, glycine, serine and aspartic acid, in the native X-DING-CD4 peptide. In XD-12 and XD-12sh, the 69th amino acid glutamic acid in the native X-DING-CD4 peptide was methylated. In XD-9, the 69th amino acid glutamic acid in the native X-DING-CD4 peptide was substituted with the amino acid glutamine. The RSA procedure was similar to that described in Example 2. The inhibitory values are plotted in FIG. 5.
We performed the rapid suppression assay (RSA) which tests directly the inhibition of HIV-1 transcription (similar to the procedure described in Example 2), the MAGI assay which tests the inhibition of HIV-1 replication in a single cycle infection (similar to the procedure described in Example 2), and the HIV-1 infection inhibition assay in human PBLs.

NL4-3 HIV-1 isolate [2] = assay: MAGI assay of HIV-1 replication in MAGI-CCR-5 cells; type: cell-based; conditions: DING family proteins, FIG. 16B
Experimental: The antiviral activity of rX-DING-CD4^pep was tested by MAGI assay. […] Subsequently, cells were exposed to rX-DING-CD4^pep treatment in the presence of DMEM supplemented with 5% fetal bovine serum, antibiotics, glutamate and […] DEAE dextran. […] Replication of virus was evaluated forty eight hours later after fixation of cells with 1% formaldehyde and 0.2% glutaraldehyde in PBS. Expression of β-galactosidase was visualized by 50 min exposure to X-GAL (5-bromo-4-chloro-3-indolyl-β-D-galactopyranoside), 0.4 mg/ml 2 mM MgCl2, 4 mM potassium ferricyanide at 37° C. After enumeration of the infected (blue) cells, all cells were lysed and subjected to the protein assay (Bio-Rad). All data were adjusted by total protein concentration and anti-viral activity was calculated as percent inhibition. The infected untreated and uninfected cells served as (+) and (−) controls to calculate 100% virus infectivity. The inhibition values for HIV-1 replication were calculated based on the formula [(R1−R0)×100/Z]-100; where R1 is the value obtained from cells infected by HIV-1 and treated with specific dilution of X-DING-CD4^pep and R^0 is the basal value obtained from the uninfected and untreated cells; Z is the absolute HIV-1 replication value calculated as Z═Rmax−R0, where Rmax is the value representing 100% of HIV-1 replication in X-DING-CD4^pep untreated cells.

X-DING-CD4 mRNA = assay: Induction of X-DING-CD4 mRNA expression in 1G5 cells (qRT-PCR); type: cell-based; conditions: 6 hours, 200 ng/ml
Experimental: The sX-DING-CD4 may be released from the macropinosome to endoplasmic reticulum (ER) and cause induction of IFNα, which in turn induces the expression of X-DING-CD4 mRNA and endogenous X-DING-CD4 protein (step 2). The induction of X-DING-CD4 mRNA by sX-DING-CD4 was tested in 1G5 cells. Briefly, three groups of 1G5 cells were treated for 6 hours with NL4-3 HIV-1 at MOI of 0.1, 200 ng/ml native X-DING-CD4 protein, and 1-126 rX-DING-CD4 peptide (i.e., rX-DING-CD4^pep), respectively. […] The eX-DING-CD4, derived from the newly synthesized X-DING-CD4, binds CN and is transported into the nucleus where it blocks LTR transcription (steps 2-7).
Two peptide fragments from the N-terminal region of X-DING-CD4 were synthesized and their activities in inducing IFN-α and X-DING-CD4 mRNA expressions were determined by qRT-PCR. The concentration of proteins used in the assays was 200 ng/ml except for the combination of XD-1 and XD-4 where we used 100 ng/ml of each peptide. The 1-126 rX-DING-CD4 and peptide C3 p16 served as positive and negative controls, respectively. The C3 Peptide P16 was derived from the C3d component of serum complement. C3 Peptide P16 regulates B cells, but not T cells, through interacting with the gp140 C3d receptor (CR2).

NL4-3 HIV-1 isolate [3] = assay: HIV-1 infection inhibition assay in human PBLs, intracellular p24 core antigen ELISA; type: cell-based; conditions: 1 μg/ml protein, seven days after infection
Experimental: In addition, we measured the inhibitory activities of these four proteins in HIV-1-infected peripheral blood lymphocytes (PBLs). The cells are treated separately with the proteins and the replication of virus was measured five and seven days later by assessing the intracellular levels of p24 core protein. PBLs were obtained by elutriation from the whole blood of healthy, HIV-1 negative volunteers. Before the experiment, cells were stimulated for 2 days in Dulbecco's modified Eagle medium (DMEM) supplemented with 10% fetal bovine serum (FBS), phytohemaglutinin (PHA, 5 μg/ml; Sigma), interleukin 2 (10 U/ml; R&D Systems), antibiotics and glutamate. Subsequently, cells were cultured without PHA. Briefly, 3×10^6 PBLs/well in a 24-well plate (Costar Scientific) were cultured in 1 ml RPMI medium supplemented with antibiotics, glutamate and 1 μg/ml of each protein, respectively. Six hours after the initial exposure to the protein treatments, the culture medium was supplemented with 3%/Vol FBS. […] Replication of virus was evaluated at five and seven days after infection by Elisa assay of the intracellular HIV-1 p24 core antigen (Perkin Elmer). The viability of cells was assessed by the dye exclusion method (Strober, 2001) at 1, 2, 3, 5 and 7 days after protein treatments.

[4] = Acute toxicity after intraperitoneal injection in mice; type: in vivo, mice (B6/SJL); conditions: 1-50 μg rX-DING-CD4^pep or 50 μg nX-DING-CD4, 7 days
Experimental: In the animal tests, eight-week old wild-type mice (B6/SJL) with both genders in each test group were injected intraperitoneally with 1-50 μg of rX-DING-CD4^pep or 50 μg nX-DING-CD4. The nX-DING-CD4 refers to the native form of X-DING-CD4 protein that was purified through IXC chromatography from the extracellular compartment of HIV-1 resistant T-cells. The rX-DING-CD4^pep refers to therapeutic X-DING-CD4 peptide that was expressed in E. coli and purified through Ni-affinity column. Toxicity was assessed by obvious symptoms including diarrhea, ruffled fur, abnormal gait, or loss of more than 10% weight. Animals were weighted before injection and then observed every hour for the first 10 hours after injection; then animals were weighted on 1, 3, 4 and 7 days after X-DING-CD4 administration. […] In its highest administered dose (50 μg—corresponding to 2 μg/G) we exceeded therapeutic dose blocking 95% of HIV promoter activity (by RSA assays) and 90% virus replication (by MAGI assays) (See FIGS. 2 & 3 in Example 2).

| Molecule | IC50 (HIV-1 LTR promoter; RSA) | IC50, HIV-1 LTR promoter inhibition, mass concentration (HIV-1 LTR promoter; RSA) | other results |
| --- | --- | --- | --- |
| C=C1[C@@H](C)[C@H]2[C@H](Cc3ccccc3)NC(=O)[C@]23[C@H](OC(C)=O)/C=C/[C@@](C)(O)C(=O)[C@@H](C)C/C=C/[C@H]3[C@@H]1O [CCD, cytochalasin D] | – | – | effect of uptake inhibitor on sX-DING-CD4 inhibition of LTR transcription [1]: still demonstrated inhibitory effects of sX-DING-CD4 on LTR transcription |
| CN(C)CCCN1c2ccccc2Sc2ccc(Cl)cc21 [CPZ, Chromopromazine] | – | – | effect of uptake inhibitor on sX-DING-CD4 inhibition of LTR transcription [1]: still demonstrated inhibitory effects of sX-DING-CD4 on LTR transcription |
| CCN(CC)CCCC(C)Nc1ccnc2cc(Cl)ccc12 (stereo not shown) [CQ, chloroquine] | – | – | effect of uptake inhibitor on sX-DING-CD4 inhibition of LTR transcription [1]: still demonstrated inhibitory effects of sX-DING-CD4 on LTR transcription |
| CN(C)c1nc(N)c(C(=O)N=C(N)N)nc1Cl [DMA, dimethyl amiloride] | – | – | effect of uptake inhibitor on sX-DING-CD4 inhibition of LTR transcription [1]: abolished the inhibitory effect of sX-DING-CD4 on LTR transcription |
| DINGGGATLPQK [XD-1] | 51.2 nM | (60 ng/ml) | – |
| DINGGQTLPQK [XD-4M] | 57 nM | (66.9 ng/ml) | – |
| GTKNVHWACVSKLTSTELSTY [XD-7] | 29.8 nM | (69.3 ng/ml) | – |
| GTKNVHWAGSDSKLTSTELSTYC [XD-5] | 35.8 nM | (88.7 ng/ml) | – |
| GVSNKNVHWAGSDSKLTAT [XD-14] | 36.8 nM | (72.5 ng/ml) | – |
| GVSNKNVHWAGSDSKLTATE(OMe)LSTY [XD-12] | 33.7 nM | (86.2 ng/ml) | – |
| GVSNKNVHWAGSDSKLTATLLSTY [XD-15] | 36.7 nM | (93.5 ng/ml) | – |
| GVSNKNVHWAGSDSKLTATQLSTY [XD-13] | 30.2 nM | (77.5 ng/ml) | – |
| KNVHWAGSDSKLTSTELSTY [XD-4] | 31 nM | (70 ng/ml) | – |
| LLSTY [XD-15sh] | 157 nM | (93.5 ng/ml) | – |
| QLSTY [XD-13sh] | 121 nM | (74 ng/ml) | – |
| YTSLE [XD-12sh, YTSLE(OMe)] | 121 nM | (74 ng/ml) | – |
| X-DING-CD4: native form of X-DING-CD4 protein purified from the extracellular compartment of HIV-1 resistant T-cells, about 40 kDa (protein, listed as Homo sapiens) MADINGGGATLPQPLYQTSGVLTAGFAPYIGVGSGKGKLAFLNNDYSQFGTGTKNVHWAGSDSKLTSTELSTYASTKQAAWGKLIQVPSVATSVAIPFNKAGSNAVDLSVDQLCGVFSGRITTWNQLPATGRTGNIVVVYRNEASGTTELFTRFLTAKCVNESKKFVVTTNFADSFGVPAGAVPAVTSQGVMTKLNAGDGRITYMSPDYAAPTLAGLDDATKVAKVAGVSPAPDNVSAAIAAVPVPAAANVALQNAWVPVFAAAADANDPSVVPYPSTGFPILGFTNLIFSQ | – | – | IC50, HIV-1 replication (MAGI) (NL4-3 HIV-1 isolate [2]): 0.075 µg/mL; IC50 RSA (HIV-1 LTR promoter; DING family proteins): 0.052 µg/mL; HIV-1 LTR IC50 (HIV-1 LTR promoter; RSA, DING family proteins, FIG. 16A): 0.052 µg/mL; expression of X-DING-CD4 mRNA (X-DING-CD4 mRNA): induced expression of X-DING-CD4 mRNA; reduction of HIV-1 replication (p24) (NL4-3 HIV-1 isolate [3]): about 11 fold; obvious symptoms of toxicity (diarrhea, ruffled fur, abnormal gait) [4]: Neither of rX-DING-CD4^pep treatment nor nX-DING-CD4 treatment caused any obvious symptoms |

Source: US20140018288A1, “X-DING-CD4 Peptide” (priority 2012, published 2014)
